Test results published in the NIST ThermoML archive (doi:10.1021/je050429b).

Conditions: Gas, Oscillating disk viscometry

CO [methanol]
Conditions	viscosity [mPa·s]
297.41 K, Amount density=10.1 mol/m3	0.009532
297.43 K, Amount density=8.17 mol/m3	0.009551
297.64 K, Amount density=3.79 mol/m3	0.009594
297.92 K, Amount density=38.68 mol/m3	0.009555
298.16 K, Amount density=6.32 mol/m3	0.009594
298.54 K, Amount density=13.2 mol/m3	0.009579
298.71 K, Amount density=49.53 mol/m3	0.009576
299.79 K, Amount density=32.22 mol/m3	0.009602
299.92 K, Amount density=24.58 mol/m3	0.009618
301.53 K, Amount density=17.93 mol/m3	0.009672
310.88 K, Amount density=24.58 mol/m3	0.009948
311.12 K, Amount density=17.93 mol/m3	0.009959
311.23 K, Amount density=8.17 mol/m3	0.01002
311.6 K, Amount density=32.22 mol/m3	0.009969
311.6 K, Amount density=38.68 mol/m3	0.009971
312.25 K, Amount density=6.32 mol/m3	0.01008
312.54 K, Amount density=3.79 mol/m3	0.0101
313.89 K, Amount density=10.1 mol/m3	0.01008
314.18 K, Amount density=13.2 mol/m3	0.01008
314.2 K, Amount density=49.53 mol/m3	0.01004
324.75 K, Amount density=3.79 mol/m3	0.0105
324.77 K, Amount density=49.53 mol/m3	0.01037
324.78 K, Amount density=32.22 mol/m3	0.01038
325.15 K, Amount density=8.17 mol/m3	0.0105
325.22 K, Amount density=10.1 mol/m3	0.0105
325.59 K, Amount density=17.93 mol/m3	0.01046
325.76 K, Amount density=13.2 mol/m3	0.01049
325.91 K, Amount density=6.32 mol/m3	0.01054
325.98 K, Amount density=24.58 mol/m3	0.01042
326.88 K, Amount density=38.68 mol/m3	0.01044
338.47 K, Amount density=8.17 mol/m3	0.01095
338.62 K, Amount density=10.1 mol/m3	0.01094
338.66 K, Amount density=32.22 mol/m3	0.01083
338.69 K, Amount density=3.79 mol/m3	0.01098
338.72 K, Amount density=38.68 mol/m3	0.0108
338.81 K, Amount density=49.53 mol/m3	0.01077
339.25 K, Amount density=17.93 mol/m3	0.01094
339.34 K, Amount density=13.2 mol/m3	0.01096
339.77 K, Amount density=6.32 mol/m3	0.01101
340.14 K, Amount density=24.58 mol/m3	0.01092
352.35 K, Amount density=49.53 mol/m3	0.01125
352.62 K, Amount density=8.17 mol/m3	0.01143
352.86 K, Amount density=10.1 mol/m3	0.01142
352.91 K, Amount density=3.79 mol/m3	0.01148
352.93 K, Amount density=3.79 mol/m3	0.01144
353.05 K, Amount density=8.17 mol/m3	0.01146
353.06 K, Amount density=38.68 mol/m3	0.01132
353.18 K, Amount density=38.68 mol/m3	0.01134
353.2 K, Amount density=49.53 mol/m3	0.01127
353.22 K, Amount density=13.2 mol/m3	0.01143
353.26 K, Amount density=13.2 mol/m3	0.01143
353.3 K, Amount density=6.32 mol/m3	0.01148
353.44 K, Amount density=10.1 mol/m3	0.01147
353.58 K, Amount density=17.93 mol/m3	0.01143
353.71 K, Amount density=24.58 mol/m3	0.01142
353.78 K, Amount density=32.22 mol/m3	0.01139
355.04 K, Amount density=32.22 mol/m3	0.01143
355.05 K, Amount density=24.58 mol/m3	0.01143
355.5 K, Amount density=6.32 mol/m3	0.01152
355.67 K, Amount density=17.93 mol/m3	0.01148
366.59 K, Amount density=10.1 mol/m3	0.01189
366.82 K, Amount density=8.17 mol/m3	0.01191
366.84 K, Amount density=3.79 mol/m3	0.01191
366.93 K, Amount density=17.93 mol/m3	0.01188
366.99 K, Amount density=32.22 mol/m3	0.01184
367.1 K, Amount density=13.2 mol/m3	0.01189
367.81 K, Amount density=49.53 mol/m3	0.01182
367.84 K, Amount density=6.32 mol/m3	0.01195
367.87 K, Amount density=38.68 mol/m3	0.01184
368.03 K, Amount density=24.58 mol/m3	0.0119
380.86 K, Amount density=10.1 mol/m3	0.01238
380.97 K, Amount density=13.2 mol/m3	0.01236
381.27 K, Amount density=3.79 mol/m3	0.0124
381.27 K, Amount density=49.53 mol/m3	0.0123
381.38 K, Amount density=8.17 mol/m3	0.01241
381.53 K, Amount density=17.93 mol/m3	0.01238
381.9 K, Amount density=38.68 mol/m3	0.01233
381.92 K, Amount density=32.22 mol/m3	0.01237
382.15 K, Amount density=6.32 mol/m3	0.01244
383.55 K, Amount density=24.58 mol/m3	0.01243
394.63 K, Amount density=10.1 mol/m3	0.01285
394.76 K, Amount density=8.17 mol/m3	0.01286
394.88 K, Amount density=49.53 mol/m3	0.01278
395.16 K, Amount density=32.22 mol/m3	0.01282
395.18 K, Amount density=24.58 mol/m3	0.01282
395.23 K, Amount density=17.93 mol/m3	0.01285
395.37 K, Amount density=38.68 mol/m3	0.01281
395.39 K, Amount density=3.79 mol/m3	0.01287
395.4 K, Amount density=13.2 mol/m3	0.01285
396.23 K, Amount density=6.32 mol/m3	0.01291
409.39 K, Amount density=13.2 mol/m3	0.01333
409.51 K, Amount density=10.1 mol/m3	0.01336
409.75 K, Amount density=24.58 mol/m3	0.01333
410.18 K, Amount density=32.22 mol/m3	0.01333
410.35 K, Amount density=38.68 mol/m3	0.01331
411.3 K, Amount density=3.79 mol/m3	0.01343
411.31 K, Amount density=6.32 mol/m3	0.01342
411.32 K, Amount density=49.53 mol/m3	0.01335
412.01 K, Amount density=17.93 mol/m3	0.01338
412.33 K, Amount density=8.17 mol/m3	0.01346
423.31 K, Amount density=8.17 mol/m3	0.01382
423.5 K, Amount density=3.79 mol/m3	0.01383
423.52 K, Amount density=49.53 mol/m3	0.01376
423.77 K, Amount density=13.2 mol/m3	0.01383
423.88 K, Amount density=32.22 mol/m3	0.0138
423.96 K, Amount density=10.1 mol/m3	0.01385
424.38 K, Amount density=17.93 mol/m3	0.01383
424.41 K, Amount density=24.58 mol/m3	0.01382
424.73 K, Amount density=6.32 mol/m3	0.01388
425.1 K, Amount density=38.68 mol/m3	0.0138
437.6 K, Amount density=10.1 mol/m3	0.01431
437.81 K, Amount density=8.17 mol/m3	0.01431
438.41 K, Amount density=13.2 mol/m3	0.01432
439.16 K, Amount density=32.22 mol/m3	0.01431
439.2 K, Amount density=24.58 mol/m3	0.01432
439.47 K, Amount density=17.93 mol/m3	0.01434
439.56 K, Amount density=49.53 mol/m3	0.0143
440.07 K, Amount density=6.32 mol/m3	0.01441
440.61 K, Amount density=3.79 mol/m3	0.01441
441.61 K, Amount density=38.68 mol/m3	0.01437
466.95 K, Amount density=24.58 mol/m3	0.01528
467.33 K, Amount density=10.1 mol/m3	0.0153
467.34 K, Amount density=38.68 mol/m3	0.01528
467.49 K, Amount density=49.53 mol/m3	0.01528
467.62 K, Amount density=32.22 mol/m3	0.01528
467.74 K, Amount density=13.2 mol/m3	0.01531
468.08 K, Amount density=17.93 mol/m3	0.01532
468.85 K, Amount density=3.79 mol/m3	0.01537
496.21 K, Amount density=38.68 mol/m3	0.01626
496.4 K, Amount density=8.17 mol/m3	0.01627
496.41 K, Amount density=17.93 mol/m3	0.01629
496.43 K, Amount density=13.2 mol/m3	0.01627
496.44 K, Amount density=24.58 mol/m3	0.01629
496.48 K, Amount density=49.53 mol/m3	0.01625
496.56 K, Amount density=10.1 mol/m3	0.01629
496.65 K, Amount density=3.79 mol/m3	0.01631
496.97 K, Amount density=32.22 mol/m3	0.0163
525.14 K, Amount density=49.53 mol/m3	0.01724
525.41 K, Amount density=3.79 mol/m3	0.01727
525.42 K, Amount density=8.17 mol/m3	0.01727
526.17 K, Amount density=32.22 mol/m3	0.01727
526.39 K, Amount density=13.2 mol/m3	0.01729
526.84 K, Amount density=24.58 mol/m3	0.0173
527.02 K, Amount density=38.68 mol/m3	0.01727
527.99 K, Amount density=17.93 mol/m3	0.01734
546.79 K, Amount density=8.17 mol/m3	0.018
546.84 K, Amount density=13.2 mol/m3	0.01798
547.13 K, Amount density=3.79 mol/m3	0.01802
547.3 K, Amount density=32.22 mol/m3	0.01801
547.49 K, Amount density=38.68 mol/m3	0.018
548.04 K, Amount density=49.53 mol/m3	0.01803
548.52 K, Amount density=17.93 mol/m3	0.01806
567.4 K, Amount density=13.2 mol/m3	0.01868
567.53 K, Amount density=32.22 mol/m3	0.01872
568.11 K, Amount density=38.68 mol/m3	0.01872
569.26 K, Amount density=3.79 mol/m3	0.01879
569.93 K, Amount density=49.53 mol/m3	0.01875
571.83 K, Amount density=17.93 mol/m3	0.01886
596.93 K, Amount density=13.2 mol/m3	0.01969
597.12 K, Amount density=32.22 mol/m3	0.01975
597.15 K, Amount density=17.93 mol/m3	0.01973
597.28 K, Amount density=49.53 mol/m3	0.01971
597.6 K, Amount density=3.79 mol/m3	0.01977
598.6 K, Amount density=38.68 mol/m3	0.01979
602.56 K, Amount density=8.17 mol/m3	0.01994
